The values that follow come from patent US7507730B2, “Substituted pyrazolo[1,5-a]pyrimidines as potassium channel activators” (Bristol-Myers Squibb Company, priority 2005, dated 2009).

Usually inhibition stands for the percentage by which the read-out fell short of the control. Lower therefore signals a weak effect. In general, IC50 refers to the midpoint of a concentration-inhibition curve.

Chain of Kv1.5 (P22460 whole entry): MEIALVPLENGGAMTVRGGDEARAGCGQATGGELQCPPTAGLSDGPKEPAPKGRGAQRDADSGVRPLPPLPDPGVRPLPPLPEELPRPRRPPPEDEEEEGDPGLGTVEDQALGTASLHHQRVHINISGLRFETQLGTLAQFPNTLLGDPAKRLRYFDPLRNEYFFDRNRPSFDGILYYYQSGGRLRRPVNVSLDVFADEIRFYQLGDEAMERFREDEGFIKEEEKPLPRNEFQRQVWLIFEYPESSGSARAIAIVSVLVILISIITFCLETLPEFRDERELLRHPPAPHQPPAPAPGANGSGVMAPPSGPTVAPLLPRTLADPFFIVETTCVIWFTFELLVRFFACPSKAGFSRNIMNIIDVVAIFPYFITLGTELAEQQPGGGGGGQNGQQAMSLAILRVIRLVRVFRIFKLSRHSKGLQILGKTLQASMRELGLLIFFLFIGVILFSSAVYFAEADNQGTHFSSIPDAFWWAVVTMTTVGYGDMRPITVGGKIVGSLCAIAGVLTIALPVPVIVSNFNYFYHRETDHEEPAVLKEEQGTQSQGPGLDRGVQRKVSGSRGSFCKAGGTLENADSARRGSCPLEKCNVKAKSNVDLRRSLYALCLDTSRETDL

For one assay, the target named is Kv1.5 (Homo sapiens, UniProt P22460). Description: Kv1.5 inhibition assay (IKur inhibitor assay per cited references). It is filed as cell-based. To be noted: at 0.3 μM. The text has this:
Assays to determine the degree of activity of a compound as an IKur inhibitor are well known in the art and are described in references such as J. Gen. Physiol. Apr.; 101 (4):513-43, and Br. J. Pharmacol. 1995 May; 115(2):267-74.
As to `CC1=C(S(=O)(=O)c2ccc(Cl)cc2)C(c2ccc(Cl)cc2)n2nc(C(F)(F)F)cc2N1` (single isomer, unassigned) [Example 31 Isomer 2, 7-(4-Chlorophenyl)-6-(4-chlorophenylsulfonyl)-5-methyl-2-(trifluoromethyl)-4,7-dihydropyrazolo[1,5-a]pyrimidine], the Kv1.5% inhibition is reported as 81.9%.
For the compound `COc1ccc(S(=O)(=O)C2=C(C)Nc3cc(C(F)(F)F)nn3C2c2ccc(C)c(F)c2)cc1` (single isomer, unassigned) [Example 32 Isomer 1, 7-(3-Fluoro-4-methylphenyl)-6-(4-methoxyphenylsulfonyl)-5-methyl-2-(trifluoromethyl)-4,7-dihydropyrazolo[1,5-a]pyrimidine], 0.3 µM produced 81.8% inhibition.
Consider `COc1ccc(S(=O)(=O)C2=C(C)Nc3cc(C(F)(F)F)nn3C2c2ccc(C)c(F)c2)cc1` (single isomer, unassigned) [Example 32 Isomer 2, 7-(3-Fluoro-4-methylphenyl)-6-(4-methoxyphenylsulfonyl)-5-methyl-2-(trifluoromethyl)-4,7-dihydropyrazolo[1,5-a]pyrimidine], for which the Kv1.5% inhibition is on record as 72.7%.
As to `CC1=C(S(=O)(=O)c2ccccc2)C(c2ccc(Cl)c(F)c2)n2nc(C(F)(F)F)cc2N1` (single isomer, unassigned) [Example 33 Isomer 1, 7-(4-Chloro-3-fluorophenyl)-5-methyl-6-(phenylsulfonyl)-2-(trifluoromethyl)-4,7-dihydropyrazolo[1,5-a]pyrimidine], 0.3 µM produced 75.5% inhibition.
Compound `CC1=C(S(=O)(=O)c2ccccc2)C(c2ccc(Cl)c(F)c2)n2nc(C(F)(F)F)cc2N1` (single isomer, unassigned) [Example 33 Isomer 2, 7-(4-Chloro-3-fluorophenyl)-5-methyl-6-(phenylsulfonyl)-2-(trifluoromethyl)-4,7-dihydropyrazolo[1,5-a]pyrimidine] returned a Kv1.5% inhibition of 76.5%.
Regarding `CC1=C(S(=O)(=O)c2ccccc2)C(c2ccc(F)cc2)n2nc(C(F)(F)F)cc2N1` (single isomer, unassigned) [Example 36 Isomer 2, 7-(4-Fluorophenyl)-5-methyl-6-(phenylsulfonyl)-2-(trifluoromethyl)-4,7-dihydropyrazolo[1,5-a]pyrimidine], the inhibition at 0.3 µM is 49%.
Still for that read-out and setting: to `CC1=C(S(=O)(=O)NC2CCCCC2)C(c2ccc(Cl)c(Cl)c2)n2nc(C)cc2N1` (single isomer, unassigned) [Example 38 Isomer 2, N-Cyclohexyl-7-(3,4-dichlorophenyl)-2,5-dimethyl-4,7-dihydropyrazolo[1,5-a]pyrimidine-6-sulfonamide] belongs 27.6%.
`COc1cccc(S(=O)(=O)C2=C(C)Nc3cc(C(F)(F)F)nn3C2c2ccc(Cl)c(Cl)c2)c1` (single isomer, unassigned) [Example 39 Isomer 1, 7-(3,4-Dichlorophenyl)-6-(3-methoxyphenylsulfonyl)-5-methyl-2-(trifluoromethyl)-4,7-dihydropyrazolo[1,5-a]pyrimidine] registered an inhibition at 0.3 µM of 78.6%.
For `COc1cccc(S(=O)(=O)C2=C(C)Nc3cc(C(F)(F)F)nn3C2c2ccc(Cl)c(Cl)c2)c1` (single isomer, unassigned) [Example 39 Isomer 2, 7-(3,4-Dichlorophenyl)-6-(3-methoxyphenylsulfonyl)-5-methyl-2-(trifluoromethyl)-4,7-dihydropyrazolo[1,5-a]pyrimidine], the Kv1.5% inhibition was found to be 79.6%.
In turn, `COc1cccc(S(=O)(=O)C2=C(C)Nc3cc(C(F)(F)F)nn3C2c2ccc(Cl)cc2)c1` (single isomer, unassigned) [Example 40 Isomer 1, 7-(4-Chlorophenyl)-6-(3-methoxyphenylsulfonyl)-5-methyl-2-(trifluoromethyl)-4,7-dihydropyrazolo[1,5-a]pyrimidine] registered an inhibition at 0.3 µM of 94.4%.
Regarding `COc1cccc(S(=O)(=O)C2=C(C)Nc3cc(C(F)(F)F)nn3C2c2ccc(Cl)cc2)c1` (single isomer, unassigned) [Example 40 Isomer 2, 7-(4-Chlorophenyl)-6-(3-methoxyphenylsulfonyl)-5-methyl-2-(trifluoromethyl)-4,7-dihydropyrazolo[1,5-a]pyrimidine], the Kv1.5% inhibition worked out at 74.4%.
With `COc1cccc(S(=O)(=O)C2=C(C)Nc3cc(C(F)(F)F)nn3C2c2ccc(C)c(F)c2)c1` (single isomer, unassigned) [Example 41 Isomer 1, 7-(3-Fluoro-4-methylphenyl)-6-(3-methoxyphenylsulfonyl)-5-methyl-2-(trifluoromethyl)-4,7-dihydropyrazolo[1,5-a]pyrimidine], 0.3 µM produced 84.4% inhibition.
Regarding `COc1cccc(S(=O)(=O)C2=C(C)Nc3cc(C(F)(F)F)nn3C2c2ccc(C)c(F)c2)c1` (single isomer, unassigned) [Example 41 Isomer 2, 7-(3-Fluoro-4-methylphenyl)-6-(3-methoxyphenylsulfonyl)-5-methyl-2-(trifluoromethyl)-4,7-dihydropyrazolo[1,5-a]pyrimidine], the Kv1.5% inhibition turned out to be 85.8%.
Regarding `CC1=C(S(=O)(=O)c2ccc(Cl)cc2)C(c2ccc(C)c(F)c2)n2nc(C(F)(F)F)cc2N1` (single isomer, unassigned) [Example 42 Isomer 1, 6-(4-Chlorophenylsulfonyl)-7-(3-fluoro-4-methylphenyl)-5-methyl-2-(trifluoromethyl)-4,7-dihydropyrazolo[1,5-a]pyrimidine], the inhibition at 0.3 µM is 94.5%.
The compound `CC1=C(S(=O)(=O)c2ccc(Cl)cc2)C(c2ccc(C)c(F)c2)n2nc(C(F)(F)F)cc2N1` (single isomer, unassigned) [Example 42 Isomer 2, 6-(4-Chlorophenylsulfonyl)-7-(3-fluoro-4-methylphenyl)-5-methyl-2-(trifluoromethyl)-4,7-dihydropyrazolo[1,5-a]pyrimidine] yielded a Kv1.5% inhibition of 92.9%.
`CC1=C(S(=O)(=O)c2ccc(Cl)cc2)C(c2ccc(F)cc2)n2nc(C(F)(F)F)cc2N1` (single isomer, unassigned) [Example 43 Isomer 1, 6-(4-Chlorophenylsulfonyl)-7-(4-fluorophenyl)-5-methyl-2-(trifluoromethyl)-4,7-dihydropyrazolo[1,5-a]pyrimidine] had an inhibition at 0.3 µM of 83.6%.
Consider `CC1=C(S(=O)(=O)c2ccc(Cl)cc2)C(c2ccc(F)cc2)n2nc(C(F)(F)F)cc2N1` (single isomer, unassigned) [Example 43 Isomer 2, 6-(4-Chlorophenylsulfonyl)-7-(4-fluorophenyl)-5-methyl-2-(trifluoromethyl)-4,7-dihydropyrazolo[1,5-a]pyrimidine], for which the Kv1.5% inhibition was 87.3%.
Turning to `CC1=C(S(=O)(=O)c2ccc(Cl)cc2)C(C2CCCCC2)n2nc(C(F)(F)F)cc2N1` (single isomer, unassigned) [Example 44 Isomer 2, 6-(4-Chlorophenylsulfonyl)-7-cyclohexyl-5-methyl-2-(trifluoromethyl)-4,7-dihydropyrazolo[1,5-a]pyrimidine], the inhibition at 0.3 µM was 21.3%.
Regarding `CC1=C(S(=O)(=O)c2ccc(Cl)cc2)C(CC(C)C)n2nc(C(F)(F)F)cc2N1` (single isomer, unassigned) [Example 45 Isomer 2, 6-(4-Chlorophenylsulfonyl)-7-isobutyl-5-methyl-2-(trifluoromethyl)-4,7-dihydropyrazolo[1,5-a]pyrimidine], the inhibition at 0.3 µM was 48%.
`COc1ccccc1S(=O)(=O)C1=C(C)Nc2cc(C(F)(F)F)nn2C1c1ccc(Cl)cc1` (single isomer, unassigned) [Example 46 Isomer 1, 7-(4-Chlorophenyl)-6-(2-methoxyphenylsulfonyl)-5-methyl-2-(trifluoromethyl)-4,7-dihydropyrazolo[1,5-a]pyrimidine]: the inhibition at 0.3 µM stood at 78.1%.

The assay is the same for the next values; noted with them: read-out: Kv1.5 IC50.
`CC1=C(S(=O)(=O)c2ccc(Cl)cc2)C(c2ccccc2)n2nc(C(F)(F)F)cc2N1` (single isomer, unassigned) [Example 35 Isomer 1, 6-(4-Chlorophenylsulfonyl)-5-methyl-7-phenyl-2-(trifluoromethyl)-4,7-dihydropyrazolo[1,5-a]pyrimidine]: the half-inhibitory concentration (IC50) is 277 nM.
In the case of `CC1=C(S(=O)(=O)c2ccc(Cl)cc2)C(c2ccccc2)n2nc(C(F)(F)F)cc2N1` (single isomer, unassigned) [Example 35 Isomer 2, 6-(4-Chlorophenylsulfonyl)-5-methyl-7-phenyl-2-(trifluoromethyl)-4,7-dihydropyrazolo[1,5-a]pyrimidine], the IC50 came to 252 nM.
`CC1=C(S(=O)(=O)c2ccccc2)C(c2ccc(F)cc2)n2nc(C(F)(F)F)cc2N1` (single isomer, unassigned) [Example 36 Isomer 1, 7-(4-Fluorophenyl)-5-methyl-6-(phenylsulfonyl)-2-(trifluoromethyl)-4,7-dihydropyrazolo[1,5-a]pyrimidine]: the IC50 was 208 nM.
As to `CC1=C(S(=O)(=O)NC2CCCCC2)C(c2ccc(Cl)c(Cl)c2)n2nc(C)cc2N1` (single isomer, unassigned) [Example 38 Isomer 1, N-Cyclohexyl-7-(3,4-dichlorophenyl)-2,5-dimethyl-4,7-dihydropyrazolo[1,5-a]pyrimidine-6-sulfonamide], the IC50 turned out to be 108 nM.
As to `CC1=C(S(=O)(=O)c2ccc(Cl)cc2)C(C2CCCCC2)n2nc(C(F)(F)F)cc2N1` (single isomer, unassigned) [Example 44 Isomer 1, 6-(4-Chlorophenylsulfonyl)-7-cyclohexyl-5-methyl-2-(trifluoromethyl)-4,7-dihydropyrazolo[1,5-a]pyrimidine], the concentration for half-maximal inhibition (IC50) stood at 202 nM.
As to `CC1=C(S(=O)(=O)c2ccc(Cl)cc2)C(CC(C)C)n2nc(C(F)(F)F)cc2N1` (single isomer, unassigned) [Example 45 Isomer 1, 6-(4-Chlorophenylsulfonyl)-7-isobutyl-5-methyl-2-(trifluoromethyl)-4,7-dihydropyrazolo[1,5-a]pyrimidine], the IC50 turned out to be 249 nM.
